Reference: US9957237B2, “Crystal form of neptinib di-p-methylbenzenesulfonate, preparation method thereof, and pharmaceutical composition containing same” (SHENZHEN NEPTUNUS PHARMACEUTICAL RESEARCH INSTITUTE CO., …, priority 2014, dated 2018)

Experiment: Stability studies (stress testing, accelerated test for 10 days) on crystal forms and free base
Format: physicochemical
Experimental: Detection conditions: Chromatographic column: Waters C18; Mobile phase A: acetonitrile-mobile phase B (70:30); Mobile phase B: 0.05 mol/l ammonium dihydrogen phosphate solution (pH=7.3); Column temperature: 30° C.; Detection wavelength: 247 nm.
Detection method: High performance liquid chromatography method, Pharmacopoeia of the People's Republic of China, Part II Appendix VD

[1] = Day 10, relative humidity 92.5%
[2] = Day 10, stress condition not given

For `CCOc1cc2ncnc(Nc3ccc(F)c(Cl)c3)c2cc1NC(=O)/C=C/CN(C)C` [Free base, (E)-N-(4-((3-chloro-4-fluorophenyl)amino)-7-ethoxyquinazolin-6-yl)-4-(dimethylamino)but-2-enamide, reference compound], the “Content (%)” value (40° C., Day 5) was 98.96%, the “Content (%)” value (40° C., Day 10) was 98.59% and the “Content (%)” value (60° C., Day 5) was 96.77%. For the same compound, the “Content (%)” value (60° C., Day 10) was 95.15%, the “Content (%)” value (Day 0) was 99.37% and the “Maximum single impurity (%)” value (Day 0) was 0.45 (RRT: 1.11) %. For the same compound, the “Maximum single impurity (%)” value (Day 5, 40° C.) was 0.46 (RRT: 1.11) %, the “Maximum single impurity (%)” value (Day 5, 60° C.) was 2.14 (RRT: 0.44) % and the “Maximum single impurity (%)” value (Day 10, 40° C.) was 0.71 (RRT: 0.43) %. For the same compound, the “Maximum single impurity (%)” value (Day 10, 60° C.) was 2.88 (RRT: 0.43) % and the “Stability (result in words)” value (under the condition of 60° C.) was “obviously degraded”.

In the case of `CCOc1cc2ncnc(Nc3ccc(F)c(Cl)c3)c2cc1NC(=O)/C=C/CN(C)C.Cc1ccc(S(=O)(=O)O)cc1` [crystal form α, (E)-N-(4-((3-chloro-4-fluorophenyl)amino)-7-ethoxyquinazolin-yl)-4-(dimethylamino)but-2-enamide (Neptinib) di-p-methylbenzene sulfonate 1.5 hydrate], the “Maximum single impurity (%)” value (Day 0) is reported as 0.021 (RRT: 1.22) %, the “Purity (%)” value (Day 0) is reported as 99.98% and the “Total impurities (%)” value (Day 0) is reported as 0.02%. For the same compound, the “Water (%)” value (Day 0) was 3.3%, the “Maximum single impurity (%)” value (Day 5, 40° C.) was 0.022 (RRT: 1.22) % and the “Purity (%)” value (Day 5, 40° C.) was 99.98%. The “Total impurities (%)” value (Day 5, 40° C.) was 0.02%, the “Water (%)” value (Day 5, 40° C.) was 3.3% and the “Maximum single impurity (%)” value (Day 5, 60° C.) was 0.022 (RRT: 1.22) %. For the same compound, the “Purity (%)” value (Day 5, 60° C.) was 99.96%, the “Total impurities (%)” value (Day 5, 60° C.) was 0.04% and the “Water (%)” value (Day 5, 60° C.) was 3.3%. For the same compound, the “Maximum single impurity (%)” value (Day 5, light irradiation) was 0.051 (RRT: 0.93) %, the “Purity (%)” value (Day 5, light irradiation) was 99.93% and the “Total impurities (%)” value (Day 5, light irradiation) was 0.07%. For the same compound, the “Water (%)” value (Day 5, light irradiation) was 3.1%, the “Maximum single impurity (%)” value (Day 5, relative humidity 75%) was 0.021 (RRT: 1.22) % and the “Purity (%)” value (Day 5, relative humidity 75%) was 99.98%. The “Total impurities (%)” value (Day 5, relative humidity 75%) was 0.02%, the “Water (%)” value (Day 5, relative humidity 75%) was 3.1% and the “Maximum single impurity (%)” value (Day 5, relative humidity 92.5%) was 0.021 (RRT: 1.22) %. For the same compound, the “Purity (%)” value (Day 5, relative humidity 92.5%) was 99.98%, the “Total impurities (%)” value (Day 5, relative humidity 92.5%) was 0.02% and the “Water (%)” value (Day 5, relative humidity 92.5%) was 3.2%. The “Maximum single impurity (%)” value (Day 10, 40° C.) was 0.022 (RRT: 1.22) %, the “Purity (%)” value (Day 10, 40° C.) was 99.98% and the “Total impurities (%)” value (Day 10, 40° C.) was 0.02%. The “Water (%)” value (Day 10, 40° C.) was 3.3%, the “Maximum single impurity (%)” value (Day 10, 60° C.) was 0.020 (RRT: 1.22) % and the “Purity (%)” value (Day 10, 60° C.) was 99.96%. For the same compound, the “Total impurities (%)” value (Day 10, 60° C.) was 0.04%, the “Water (%)” value (Day 10, 60° C.) was 3.3% and the “Maximum single impurity (%)” value (Day 10, light irradiation) was 0.055 (RRT: 0.93) %. For the same compound, the “Purity (%)” value (Day 10, light irradiation) was 99.91%, the “Total impurities (%)” value (Day 10, light irradiation) was 0.09% and the “Water (%)” value (Day 10, light irradiation) was 3.1%. The “Maximum single impurity (%)” value (Day 10, relative humidity 75%) was 0.022 (RRT: 1.22) %, the “Purity (%)” value (Day 10, relative humidity 75%) was 99.98% and the “Total impurities (%)” value (Day 10, relative humidity 75%) was 0.02%. For the same compound, the “Water (%)” value (Day 10, relative humidity 75%) was 3.1%, the “Maximum single impurity (%)” value [1] was 0.022 (RRT: 1.22) % and the “Purity (%)” value [1] was 99.98%. The “Total impurities (%)” value [1] was 0.02%, the “Water (%)” value [1] was 3.2% and the “Maximum single impurity (%)” value [2] was 0.022 (RRT: 1.22) %. The “Purity (%)” value [2] was 99.98%, the “Total impurities (%)” value [2] was 0.02% and the “Water (%)” value [2] was 3.2%.

With `CCOc1cc2ncnc(Nc3ccc(F)c(Cl)c3)c2cc1NC(=O)/C=C/CN(C)C.Cc1ccc(S(=O)(=O)O)cc1.Cc1ccc(S(=O)(=O)O)cc1.O.O` [crystal form β, (E)-N-(4-((3-chloro-4-fluorophenyl)amino)-7-ethoxyquinazolin-6-yl)-4-(dimethylamino)but-2-enamide (Neptinib) di-p-methylbenzene sulfonate 2 hydrate] the “Maximum single impurity (%)” value (Day 0) was 0.017 (RRT: 1.22) %, the “Purity (%)” value (Day 0) was 99.97% and the “Total impurities (%)” value (Day 0) was 0.03%. The “Water (%)” value (Day 0) was 4.4%, the “Maximum single impurity (%)” value (Day 5, 40° C.) was 0.020 (RRT: 1.22) % and the “Purity (%)” value (Day 5, 40° C.) was 99.97%. The “Total impurities (%)” value (Day 5, 40° C.) was 0.03%, the “Water (%)” value (Day 5, 40° C.) was 4.4% and the “Maximum single impurity (%)” value (Day 5, 60° C.) was 0.151 (RRT: 0.93) %. The “Purity (%)” value (Day 5, 60° C.) was 99.83%, the “Total impurities (%)” value (Day 5, 60° C.) was 0.17% and the “Water (%)” value (Day 5, 60° C.) was 4.3%. The “Maximum single impurity (%)” value (Day 5, light irradiation) was 0.032 (RRT: 1.17) %, the “Purity (%)” value (Day 5, light irradiation) was 99.94% and the “Total impurities (%)” value (Day 5, light irradiation) was 0.06%. The “Water (%)” value (Day 5, light irradiation) was 4.4%, the “Maximum single impurity (%)” value (Day 5, relative humidity 75%) was 0.019 (RRT: 1.22) % and the “Purity (%)” value (Day 5, relative humidity 75%) was 99.97%. For the same compound, the “Total impurities (%)” value (Day 5, relative humidity 75%) was 0.03%, the “Water (%)” value (Day 5, relative humidity 75%) was 4.4% and the “Maximum single impurity (%)” value (Day 5, relative humidity 92.5%) was 0.018 (RRT: 1.22) %. The “Purity (%)” value (Day 5, relative humidity 92.5%) was 99.97%, the “Total impurities (%)” value (Day 5, relative humidity 92.5%) was 0.03% and the “Water (%)” value (Day 5, relative humidity 92.5%) was 4.5%. For the same compound, the “Maximum single impurity (%)” value (Day 10, 40° C.) was 0.020 (RRT: 122) %, the “Purity (%)” value (Day 10, 40° C.) was 99.98% and the “Total impurities (%)” value (Day 10, 40° C.) was 0.02%. For the same compound, the “Water (%)” value (Day 10, 40° C.) was 4.5%, the “Maximum single impurity (%)” value (Day 10, 60° C.) was 0.020 (RRT: 1.22) % and the “Purity (%)” value (Day 10, 60° C.) was 99.94%. The “Total impurities (%)” value (Day 10, 60° C.) was 0.06%, the “Water (%)” value (Day 10, 60° C.) was 4.4% and the “Maximum single impurity (%)” value (Day 10, light irradiation) was 0.177 (RRT: 0.93) %. For the same compound, the “Purity (%)” value (Day 10, light irradiation) was 99.80%, the “Total impurities (%)” value (Day 10, light irradiation) was 0.20% and the “Water (%)” value (Day 10, light irradiation) was 4.5%. The “Maximum single impurity (%)” value (Day 10, relative humidity 75%) was 0.022 (RRT: 1.22) %, the “Purity (%)” value (Day 10, relative humidity 75%) was 99.98% and the “Total impurities (%)” value (Day 10, relative humidity 75%) was 0.02%. The “Water (%)” value (Day 10, relative humidity 75%) was 4.4%, the “Maximum single impurity (%)” value [1] was 0.021 (RRT: 1.22) % and the “Purity (%)” value [1] was 99.98%. For the same compound, the “Total impurities (%)” value [1] was 0.02%, the “Water (%)” value [1] was 4.5% and the “Maximum single impurity (%)” value [2] was 0.022 (RRT: 1.22) %. For the same compound, the “Purity (%)” value [2] was 99.98%, the “Total impurities (%)” value [2] was 0.02% and the “Water (%)” value [2] was 4.3%.
